Where two headings read alike, the source gives them in different places. Marks after values point to notes of the source that are not given here.
Assays:
Fusarium culmorum = assay: Example H: Fusarium culmorum-test (wheat)/curative; type: in vivo; conditions: 500 ppm of active ingredient, curative, evaluated 5 days after inoculation
Method: Solvent: 49 parts by weight of N,N-dimethylacetamide
Emulsifier: 1 part by weight of alkylaryl polyglycol ether
To produce a suitable preparation of active compound, 1 part by weight of active compound or active compound combination is mixed with the stated amounts of solvent and emulsifier, and the concentrate is diluted with water to the desired concentration.
To test for curative activity, young plants are slightly injured by using a sandblast and afterwards they are sprayed with a conidia suspension of Fusarium culmorum and placed for 24 hours in a greenhouse under a translucent incubation cabinet at a temperature of approximately 22° C. and a relative atmospheric humidity of approximately 100% and are subsequently sprayed with the preparation of active compound at the stated rate of application.
After the spray coating has been dried, the plants remain in the greenhouse under translucent incubation cloches at a temperature of approximately 22° C. and a relative atmospheric humidity of approximately 100%.
The test is evaluated 5 days after the inoculation. 0% means an efficacy which corresponds to that of the untreated control, while an efficacy of 100% means that no disease is observed.

Fusarium graminearum = type: in vivo; conditions: 500 ppm of active ingredient; barley, preventive; evaluated 5 days after inoculation
Venturia inaequalis = assay: Example O: Venturia test (apples)/preventive; type: in vivo; conditions: 100 ppm of active ingredient, preventive, evaluated 10 days after inoculation
Method: (§1) Solvent: 24.5 parts by weight of acetone • 24.5 parts by weight of dimethylacetamide Emulsifier: 1 part by weight of alkylaryl polyglycol ether To produce a suitable preparation of active compound, 1 part by weight of active compound is mixed with the stated amounts of solvent and emulsifier, and the concentrate is diluted with water to the desired concentration. To test for preventive activity, young plants are sprayed with the preparation of active compound at the stated rate of application.

Puccinia recondita = assay: Example B: in vivo preventive test on Puccinia recondita (brown rust on wheat); conditions: wheat plants, preventive spray, evaluated 11 days after inoculation
Method: (§2) The young plants of wheat are treated by spraying the active ingredient prepared as described above. Control plants are treated only with an aqueous solution of acetone/Dimethyl sulfoxide/Tween®. After 24 hours, the plants are contaminated by spraying the leaves with an aqueous suspension of Puccinia recondita spores.

[1] = test system: Fusarium nivale (var. majus); assay: Example J: Fusarium nivale (var. majus)-test (wheat)/preventive; type: in vivo; conditions: 500 ppm of active ingredient, preventive, evaluated 5 days after inoculation
Outline: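 Young wheat plants sprayed preventively with active compound (DMA/emulsifier concentrate diluted in water) at the stated rate, then sandblast-wounded and inoculated with conidia. Held in greenhouse at ~10 °C, ~100% RH. Efficacy scored 5 days post-inoculation: 0% = untreated control, 100% = no disease.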

[2] = test system: Blumeria graminis f. sp. hordei; assay: Example G: Blumeria test (barley)/preventive; type: in vivo; conditions: 500 ppm of active ingredient, preventive, evaluated 7 days after inoculation
Outline: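 Active compound formulated in N,N-dimethylacetamide with alkylaryl polyglycol ether emulsifier, diluted in water, and sprayed onto young barley plants at the stated application rate. Once the coating dried, plants were dusted with Blumeria graminis f. sp. hordei spores as a preventive test.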

Botrytis cinerea = assay: Example A: in vivo preventive test on Botrytis cinerea (grey mould); conditions: gherkin plants, preventive spray, evaluated 4 to 5 days after inoculation
Method: as §2, with “gherkin” for “wheat”, “Botrytis cinerea” for “Puccinia recondita”

Septoria tritici = assay: Example D: in vivo preventive test on Septoria tritici (leaf spot on wheat); conditions: wheat plants, preventive spray, evaluated 24 days after inoculation
Method: as §2, with “Septoria tritici” for “Puccinia recondita”

Sphaerotheca fuliginea = assay: Example E: in vivo preventive test on Sphaerotheca fuliginea (powdery mildew on cucurbits); conditions: gherkin plants, preventive spray, evaluated 15 days after inoculation
Method: as §2, with “gherkin” for “wheat”, “Sphaerotheca fuliginea” for “Puccinia recondita”

Phakopsora pachyrhizi = assay: Example L: Phakopsora test (soybeans)/preventive; type: in vivo; conditions: 100 ppm of active ingredient, preventive, evaluated 7 days after inoculation
Pyricularia oryzae = type: in vivo; conditions: 500 ppm of active ingredient; rice, preventive; evaluated 8 days after inoculation
Uromyces appendiculatus = assay: Example F: in vivo preventive test on Uromyces appendiculatus (bean rust); conditions: bean plants, preventive spray, evaluated 11 days after inoculation
Method: as §2, with “bean” for “wheat”, “Uromyces appendiculatus” for “Puccinia recondita”

Leptosphaeria nodorum = assay: Example K: Leptosphaeria nodorum test (wheat)/preventive; type: in vivo; conditions: 500 ppm of active ingredient, preventive, evaluated 8 days after inoculation
Method: Solvent: 49 parts by weight of N,N-dimethylacetamide Emulsifier: 1 part by weight of alkylaryl polyglycol ether To produce a suitable preparation of active compound, 1 part by weight of active compound or active compound combination is mixed with the stated amounts of solvent and emulsifier, and the concentrate is diluted with water to the desired concentration. To test for preventive activity, young plants are sprayed with the preparation of active compound or active compound combination at the stated rate of application. After the spray coating has been dried, the plants are sprayed with a spore suspension of Leptosphaeria nodorum.

Pyrenophora teres = assay: Example C: in vivo preventive test on Pyrenophora teres (net blotch on barley); conditions: barley plants, preventive spray, evaluated 14 days after inoculation
Method: as §2, with “barley” for “wheat”, “Pyrenophora teres” for “Puccinia recondita”

Podosphaera leucotricha = assay: Example M: Podosphaera test (apples)/preventive; type: in vivo; conditions: 100 ppm of active ingredient, preventive, evaluated 10 days after inoculation
Method: as §1, with “application. After the spray coating has dried on, the plants are inoculated with an aqueous spore suspension of the causal agent of apple mildew (Podosphaera leucotricha).” for “application.”

[3] = method [a]: LC-MS at pH 2.7, 0.1% formic acid in water / acetonitrile gradient

Row | Structure (SMILES) | Eff. % (Fusarium culmorum) [%] | Eff. % (Fusarium graminearum) [%] | Eff. % (Venturia inaequalis) [%] | Eff. % (Puccinia recondita; 100 ppm of active ingredient) [%] | Eff. % [1] [%] | Eff. % [2] [%] | Eff. % (Botrytis cinerea; 100 ppm of active ingredient) [%] | Eff. % (Septoria tritici; 100 ppm of active ingredient) [%] | Eff. % (Sphaerotheca fuliginea; 100 ppm of active ingredient) [%] | Eff. % (Phakopsora pachyrhizi) [%] | Eff. % (Pyricularia oryzae) [%] | LogP (pH 2.7) | Eff. % (Uromyces appendiculatus; 100 ppm of active ingredient) [%] | Eff. % (Leptosphaeria nodorum) [%] | Eff. % (Puccinia recondita; 500 ppm of active ingredient) [%] | Eff. % (Pyrenophora teres; 500 ppm of active ingredient) [%] | Eff. % (Botrytis cinerea; 500 ppm of active ingredient) [%] | Eff. % (Septoria tritici; 500 ppm of active ingredient) [%] | Eff. % (Sphaerotheca fuliginea; 500 ppm of active ingredient) [%] | Eff. % (Uromyces appendiculatus; 500 ppm of active ingredient) [%] | other results
1 | CC(CF)(CF)C(O)(Cc1ccncc1Cl)Cn1cncn1 (stereo not drawn) [Example I-6] | 100 | 100 | 100 | 81 | 100 | 100 | 76 | 100 | 100 | 95 | 83 | 1.54^[a] | 100 | 100 | – | – | – | – | – | – | –
2 | OC(Cc1cccnc1F)(Cn1cncn1)C1(Cl)CC1 (stereo not drawn) [Example I-51] | 100 | 100 | 94 | – | 100 | 100 | – | – | – | 100 | 80 | 1.64^[a] | – | 100 | 98 | 100 | 100 | 100 | 100 | 86 | –
3 | OC(Cc1ccncc1F)(Cn1cncn1)C1(Cl)CC1 (stereo not drawn) [Example I-18] | 100 | 100 | 100 | 94 | 100 | 100 | 100 | 98 | 100 | 95 | – | 1.29^[a] | 97 | 100 | – | – | – | – | – | – | Eff. % (Pyrenophora teres; 100 ppm of active ingredient): 83%; Eff. % (Podosphaera leucotricha): 97%
4 | OC(Cc1ccc(Cl)nc1Cl)(Cn1cncn1)C1(Cl)CC1 (stereo not drawn) [Example I-53] | 90 | 100 | 97 | – | 100 | 100 | – | – | – | 93 | 80 | 2.55^[a] | – | 100 | 94 | 86 | 100 | 100 | 100 | 98 | –
5 | OC(Cc1cccnc1Cl)(Cn1cncn1)C1(Cl)CC1 (stereo not drawn) [Example I-3] | 100 | 100 | 98 | – | 100 | 100 | – | – | 100 | 100 | 100 | 1.78^[a] | – | 100 | 98 | 100 | 100 | 100 | – | 100 | Eff. % (Podosphaera leucotricha): 100%
6 | OC(Cc1ccncc1Cl)(Cn1cncn1)C1(Cl)CC1 (stereo not drawn) [Example I-5, 2-(1-chlorocyclopropyl)-1-(3-chloropyridin-4-yl)-3-(1H-1,2,4-triazol-1-yl)propan-2-ol] | 100 | 100 | 100 | – | 100 | 100 | – | – | – | 100 | 75 | – | – | 90 | 100 | – | 100 | 100 | 100 | 98 | Eff. % (Podosphaera leucotricha): 100%
7 | OC(Cc1ccncc1Cl)(Cn1cncn1)C1(F)CC1 (stereo not drawn) [Example I-7] | 100 | 100 | 98 | 94 | 100 | 100 | 100 | 98 | 100 | 94 | 100 | – | 100 | 100 | – | – | – | – | – | – | Eff. % (Pyrenophora teres; 100 ppm of active ingredient): 92%; LogP [3]: 1.29^[a]
8 | OC(Cc1cc(F)ncc1Cl)(Cn1cncn1)C1(F)CC1 (racemic) [Example I-65] | 100 | 100 | 100 | – | 100 | 100 | – | – | – | 100 | 86 | 1.77^[a] | – | 100 | 98 | 100 | 100 | 100 | 100 | 100 | –
9 | CC1(C(O)(Cc2cccnc2Cl)Cn2cncn2)CC1 (stereo not drawn) [Example I-8] | 100 | 100 | 100 | 94 | 100 | 100 | 87 | 94 | 100 | 95 | 100 | – | 100 | 92 | – | – | – | – | – | – | LogP [3]: 1.73^[a]
10 | CC1(C(O)(Cc2ccncc2Cl)Cn2cncn2)CC1 (stereo not drawn) [Example I-49] | 100 | 100 | 100 | – | 100 | 100 | – | – | – | 96 | – | 1.57^[a] | – | 100 | 100 | 93 | 99 | 100 | 100 | 81 | –
